Measurements from article PMC9471048, “The signaling and selectivity of α‐adrenoceptor agonists for the human α2A, α2B and α2C‐adrenoceptors and comparison with human α1 and β‐adrenoceptors” (Pharmacology Research & Perspectives, 2022).
Read-outs that look alike come from different tables or passages of the source.

Columns and labels:
[1] = molecular target: T1, α1D‐adrenoceptor (Homo sapiens, UniProt P25100); details: CHO-α1D cells
T1 sequence (P25100 1-572): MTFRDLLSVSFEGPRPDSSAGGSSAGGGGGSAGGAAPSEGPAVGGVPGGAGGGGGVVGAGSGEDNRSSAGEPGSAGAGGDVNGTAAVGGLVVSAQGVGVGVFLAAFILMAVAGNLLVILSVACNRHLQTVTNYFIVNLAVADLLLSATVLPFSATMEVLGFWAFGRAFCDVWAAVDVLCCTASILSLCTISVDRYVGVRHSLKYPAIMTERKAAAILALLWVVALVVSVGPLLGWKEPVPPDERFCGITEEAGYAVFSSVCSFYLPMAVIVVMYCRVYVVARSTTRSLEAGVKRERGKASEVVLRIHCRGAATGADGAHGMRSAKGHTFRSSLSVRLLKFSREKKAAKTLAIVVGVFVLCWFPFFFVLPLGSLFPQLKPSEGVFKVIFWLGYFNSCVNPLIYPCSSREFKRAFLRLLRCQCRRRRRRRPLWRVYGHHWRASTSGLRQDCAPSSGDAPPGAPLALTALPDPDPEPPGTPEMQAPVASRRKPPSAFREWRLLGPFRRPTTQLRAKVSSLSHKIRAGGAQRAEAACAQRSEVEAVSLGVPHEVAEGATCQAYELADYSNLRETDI

[2] = system: parent CHO cells (no transfected receptor); assay: ERK1/2‐phosphorylation in parent CHO cells; format: cell-based, Chinese hamster; details: Cricetulus griseus, read-out: log EC50, ERK1/2‐phosphorylation in parent CHO cells (converted)
[3] = molecular target: T2, human α2C‐adrenoceptor (Homo sapiens, UniProt P18825); assay: 3H‐rauwolscine whole cell binding in CHO‐α2C cells; parameters: expressed in transfected cells; host or cells: CHO-K1 with CRE-SPAP reporter; details: 3H‐rauwolscine whole cell binding
T2 sequence (P18825 1-462): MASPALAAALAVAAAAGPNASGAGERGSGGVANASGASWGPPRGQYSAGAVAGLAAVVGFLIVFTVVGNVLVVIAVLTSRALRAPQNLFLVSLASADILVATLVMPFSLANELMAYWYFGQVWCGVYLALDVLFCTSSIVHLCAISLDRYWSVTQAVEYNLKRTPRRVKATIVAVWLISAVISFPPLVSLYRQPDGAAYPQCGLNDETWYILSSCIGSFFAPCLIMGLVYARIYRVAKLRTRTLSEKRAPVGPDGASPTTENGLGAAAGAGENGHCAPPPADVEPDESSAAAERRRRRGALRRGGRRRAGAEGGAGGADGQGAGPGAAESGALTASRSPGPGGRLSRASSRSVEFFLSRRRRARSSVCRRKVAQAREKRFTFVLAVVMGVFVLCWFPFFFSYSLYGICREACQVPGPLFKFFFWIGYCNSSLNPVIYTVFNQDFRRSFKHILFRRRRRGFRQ

[4] = molecular target: T2, human α2C‐adrenoceptor; assay: ERK1/2‐phosphorylation in CHO‐α2C cells; format: cell-based; parameters: expressed in transfected cells; host or cells: CHO-K1 with CRE-SPAP reporter; details: CHO‐α2C cells, maximum response compared to 10 μM PDBu, mean ± SEM
[5] = molecular target: T3, human α2A‐adrenoceptor (Homo sapiens, UniProt P08913); assay: ERK1/2‐phosphorylation in CHO‐α2A cells; format: cell-based; parameters: expressed in transfected cells; host or cells: CHO-K1 with CRE-SPAP reporter; details: CHO‐α2A, maximum response compared to 10 μM PDBu
T3 sequence (P08913 1-465): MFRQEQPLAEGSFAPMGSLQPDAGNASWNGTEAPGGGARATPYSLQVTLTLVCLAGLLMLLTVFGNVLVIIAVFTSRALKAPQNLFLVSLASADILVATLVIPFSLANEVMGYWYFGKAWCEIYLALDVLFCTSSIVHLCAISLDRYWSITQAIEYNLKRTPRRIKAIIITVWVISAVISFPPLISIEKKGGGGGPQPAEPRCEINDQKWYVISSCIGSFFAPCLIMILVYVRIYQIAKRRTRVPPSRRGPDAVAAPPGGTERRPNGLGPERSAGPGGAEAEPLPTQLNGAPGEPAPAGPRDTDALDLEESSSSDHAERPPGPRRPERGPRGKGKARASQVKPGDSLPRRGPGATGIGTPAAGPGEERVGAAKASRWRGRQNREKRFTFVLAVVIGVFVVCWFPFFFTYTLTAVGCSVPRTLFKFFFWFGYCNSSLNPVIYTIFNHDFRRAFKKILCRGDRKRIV

[6] = molecular target: T2, human α2C‐adrenoceptor; details: CHO‐α2C cells
[7] = molecular target: T3, human α2A‐adrenoceptor

Compound	specific binding inhibited (early plateau) [1] [%]	EC50 [2] [nM]	Kd ([3]; living cells, negative log KD, mean ± SEM, read-out: Log KD, CHO‐α2C (converted)) [nM]	Kd ([3]; CHO‐α2C cells, given as negative log KD, mean only (SEM in Table 4), read-out: Log KD (converted)) [nM]	% 10 μM PDBu, ERK1/2‐phosphorylation [4] [%]	% 10 μM PDBu, ERK1/2‐phosphorylation [5] [%]	% inhibition, CRE‐SPAP (with forskolin) ([6]; % inhibition from the 3 μM forskolin control, mean ± SEM) [%]	Log EC50 (Gs), CRE‐SPAP (without forskolin) ([6]; CRE‐SPAP production in the absence of forskolin)	IC50 ([6]; Log IC50 (Gi), CRE‐SPAP (with forskolin), inhibition of 3 μM forskolin‐stimulated CRE‐SPAP production, given as negative log IC50, mean ± SEM) [nM]	% 3 μM forskolin, CRE‐SPAP (without forskolin) [7] [%]
CC(C)C[C@H]1C(=O)N2CCC[C@H]2[C@]2(O)O[C@](NC(=O)[C@@H]3C=C4c5cccc6[nH]c(Br)c(c56)C[C@H]4N(C)C3)(C(C)C)C(=O)N12 [Bromocriptine]	71.2 ± 3.4	117	–	–	–	–	–	–	–	–
Clc1ccc2nsnc2c1NC1=NCCN1 [Tizanidine]	–	–	1480	1480	133.6 ± 17.9	135.7 ± 17.3	72.1 ± 4.4	No response	302	15.8 ± 4.7
